Laboratory results: ChEMBL document CHEMBL4834411, “Hydroazulene Diterpenes from a Dictyota Brown Alga and Their Antioxidant and Neuroprotective Effects Against Cerebral Ischemia-Reperfusion Injury” (2021)
Calls of active or inactive are those of the source. The calls are words filed in the database; no cut-off is given here.

Experiments:
PC-12 [1] = assay: Cytoprotective activity against H2O2-induced oxidative damage in rat PC12 cells assessed as increase in cell viability pre-incubated for 24 hrs followed by H2O2 treatment for another 24 hrs by MTT assay; assay type: functional, cell-based; conditions: dose 0.25-2 µM, time 48.0 hrs
PC-12 [2] = assay: Cytoprotective activity against H2O2-induced oxidative damage in rat PC12 cells assessed as increase in cell viability at 0.25 uM preincubated for 24 hrs followed by H2O2 treatment for another 24 hrs by MTT assay; assay type: functional, cell-based; conditions: time 48.0 hrs
PC-12 [3] = assay: Cytoprotective activity against H2O2-induced oxidative damage in rat PC12 cells assessed as increase in colony formation at 0.5 to 1 uM preincubated for 24 hrs followed by H2O2 treatment by crystal violet staining based assay; assay type: functional, cell-based; conditions: dose 0.5-1 µM
PC-12 [4] = assay: Antioxidant activity against H2O2-induced oxidative damage in rat PC12 cells assessed as inhibition of MDA production at 2 uM preincubated for 24 hrs followed by H2O2 stimulation for 6 hrs; assay type: functional, cell-based; conditions: time 30.0 hrs
PC-12 [5] = assay: Antioxidant activity against H2O2-induced oxidative damage in rat PC12 cells assessed as inhibition of intracellular ROS production at 2 uM preincubated for 24 hrs followed by H2O2 stimulation for 2 hrs by DCFH-DA staining based fluorescence microscopy; assay type: functional, cell-based; conditions: time 26.0 hrs
[6] = target: T1, Nuclear factor erythroid 2-related factor 2 (Rattus norvegicus) (UniProt O54968); assay: Activation of Nrf2 in rat PC12 cells assessed as nuclear translocation of Nrf2 at 2 uM after 6 hrs by DAPI staining based fluorescence microscopy analysis; assay type: cell-based; conditions: PC-12, filed as activator
T1 sequence (whole entry): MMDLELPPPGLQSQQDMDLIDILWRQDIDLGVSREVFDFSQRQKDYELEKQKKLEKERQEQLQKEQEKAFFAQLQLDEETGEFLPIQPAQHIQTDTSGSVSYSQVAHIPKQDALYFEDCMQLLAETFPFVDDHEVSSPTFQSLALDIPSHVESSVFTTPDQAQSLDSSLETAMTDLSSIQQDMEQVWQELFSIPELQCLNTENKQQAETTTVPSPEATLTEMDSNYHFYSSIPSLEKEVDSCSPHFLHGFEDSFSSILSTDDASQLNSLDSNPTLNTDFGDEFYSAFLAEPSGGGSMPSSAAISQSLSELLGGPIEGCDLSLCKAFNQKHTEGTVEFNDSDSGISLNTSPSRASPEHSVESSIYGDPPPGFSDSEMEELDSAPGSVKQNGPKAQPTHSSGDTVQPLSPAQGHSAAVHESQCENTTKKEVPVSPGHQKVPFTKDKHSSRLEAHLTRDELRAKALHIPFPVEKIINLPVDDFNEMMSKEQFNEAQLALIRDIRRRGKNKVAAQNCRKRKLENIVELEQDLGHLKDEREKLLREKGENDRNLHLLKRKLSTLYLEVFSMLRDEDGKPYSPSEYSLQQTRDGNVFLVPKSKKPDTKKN

[7] = target: T1, Nuclear factor erythroid 2-related factor 2 (Rattus norvegicus); assay: Activation of Nrf2 in rat PC12 cells assessed as upregulation of HO-1 protein expression after 24 hrs by Western blotting analysis; assay type: cell-based; conditions: PC-12, filed as activator, dose 0.5-2 µM
[8] = target: T1, Nuclear factor erythroid 2-related factor 2 (Rattus norvegicus); assay: Activation of Nrf2 in rat PC12 cells assessed as upregulation of HO-1 protein expression at 2 uM after 24 hrs by Western blotting analysis; assay type: cell-based; conditions: PC-12, filed as activator
PC-12 [9] = assay: Cytoprotective activity against H2O2-induced oxidative damage in Nrf2 knockdown rat PC12 cells assessed as increase in cell viability at 2 uM preincubated for 24 hrs followed by H2O2 treatment for another 24 hrs by MTT assay; assay type: functional, cell-based; conditions: time 48.0 hrs
Rattus norvegicus [10] = assay: Neuroprotective activity in Sprague-Dawley rat model of middle cerebral artery occlusion-induced cerebral ischemia-reperfusion injury assessed as decrease in brain infarction size at 80 ug/kg pretreated for 2 hrs followed by MCAO measured after 72 hrs by TTC staining based assay; assay type: functional, organism-based; conditions: dose 80.0 µg/kg
Rattus norvegicus [11] = assay: Neuroprotective activity in Sprague-Dawley rat model of middle cerebral artery occlusion-induced cerebral ischemia-reperfusion injury assessed as reduction in neurological deficit score at 80 ug/kg pretreated for 2 hrs followed by MCAO measured after 72 hrs by TTC staining based assay; assay type: functional, organism-based; conditions: dose 80.0 µg/kg, time 74.0 hrs

CC(C)=CCC[C@@H](C)[C@@H]1CC[C@](C)(O)[C@@H]2CC=C(C)[C@H]2[C@@H]1O
Activity (PC-12 [1]): Dose-Dependent Effect
Activity (PC-12 [2]): Active
Activity (PC-12 [3]): Active
Activity (PC-12 [4]): Active
Activity (PC-12 [5]): Active
Activity [6]: Active
Activity [7]: Dose-Dependent Effect
Activity [8]: Active
Activity (PC-12 [9]): inactive
Activity (Rattus norvegicus [10]): Active
Activity (Rattus norvegicus [11]): Active
